Paper PMC8752738, “A propolis-derived small molecule ameliorates metabolic syndrome in obese mice by targeting the CREB/CRTC2 transcriptional complex” (Nature Communications, 2022)
“And” between values parts separate entries of the source, which are not always exact repeats. Identical values can stand only once.

Columns and labels:
[1] = target: T1, GST-CREB / HIS-CRTC2-S171A interaction (Homo sapiens, UniProt P16220); experiment: In vitro pull-down with purified GST-CREB and HIS-CRTC2-S171A; assay type: biochemical; conditions: for Relative HIS/GST in GST-pull down fraction: Fig 2d replicates
T1 construct: made in house; host or cells: E. coli
T1 sequence (P16220 whole entry, stated change not applied): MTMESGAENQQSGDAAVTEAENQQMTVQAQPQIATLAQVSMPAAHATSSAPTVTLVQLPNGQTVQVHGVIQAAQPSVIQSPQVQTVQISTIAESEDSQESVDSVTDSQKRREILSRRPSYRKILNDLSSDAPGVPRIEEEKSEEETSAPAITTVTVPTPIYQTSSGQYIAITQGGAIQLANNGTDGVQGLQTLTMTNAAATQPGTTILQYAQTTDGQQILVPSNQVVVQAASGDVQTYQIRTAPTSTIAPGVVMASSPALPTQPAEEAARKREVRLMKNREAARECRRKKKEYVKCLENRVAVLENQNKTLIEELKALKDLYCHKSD
Excerpt: To further confirm whether APC disrupts the protein association between CREB and CRTC2, we performed GST-pull-down assays in which GST-CREB beads were used to immunoprecipitated FLAG-tagged CRTC2 proteins that were expressed in HEK293T cells. As expected, APC attenuated the amounts of FLAG-CRTC2 proteins recovered by GST-CREB beads from HEK293T cell lysates (Fig. 2a). […] In contrast, APC had little effect on the association of GST-CREB with HA-P300 (Supplementary Fig. 2a), as well as the interaction between endogenous CRTC2 and CBP proteins (Fig. 2c). Moreover, the interactions of CREB and the isoforms CRTC1 and CRTC3 were also attenuated by APC in overexpression HEK293T cells (Supplementary Fig. 2b, c).
Fig. 2 APC blocks interaction between CREB and CRTC2. a Analysis of GST-CREB immunoprecipitated with overexpressed FLAG-CRTC2 from the lysates of HEK293T cells. APC (10 μM) was added to the culture media for 1 h and the following IP mixture. The relative gray density of FLAG in GST-pull-down fraction is shown as a bar graph (bottom). One of three independent experiments is presented (top, n = 3). Data are represented as mean ± SEM); P values were determined by one-way ANOVA followed Dunnett’s multiple comparisons test. b Analysis of HA-CRTC2 immunoprecipitated with endogenous CREB from primary hepatocyte lysates. APC (10 μM) was added to the culture media for 1-h before 30-min of stimulation with glucagon (Gluc, 100 nM) and the following IP mixture as indicated. Top panel presents one of three independent experiments, and the relative gray density of HA in CREB-IP-faction is shown as a bar graph (bottom, n = 3). Data are represented as mean ± SEM; P values were determined by one-way ANOVA followed Dunnett’s multiple comparisons test. c Immunoblotting analysis of endogenous CREB, CRTC2, and CBP interaction by an anti-CRTC2 antibody from the lysate of primary hepatocytes. APC (10 μM) was added to the culture media for 1-h before 30-min stimulation with glucagon. Related CREB and CBP normalized by CRTC2, respectively, in CRTC2-IP fractions. The top panel presents one of three independent experiments, and the relative gray density of CREB and CBP normalized to CRTC2 in the CRTC2-IP-faction is shown as a bar graph (bottom, n = 3). Data are represented as mean ± SEM; P values were determined by two-way ANOVA followed Bonferroni’s multiple comparisons test. d Immunoblotting analysis of protein GST-CREB recovered HIS-CRTC2-S171A proteins purified from E. coli. The addition of APC (5, 10, or 50 μM) in pull-down mixtures is indicated. […] Data are represented as mean ± SEM; P values were determined by one-way ANOVA followed Dunnett’s multiple comparisons test (compared with APC = 0).

[2] = Body weight and body composition (living NMR) of mice; assay type: in vivo, mouse; set-up: AUC of body weight curve, group mean / fat mass of DIO, group mean / Total Area (AUC of body weight curve): unit not given here; conditions: for Total Area (AUC of body weight curve) / Body weight, column mean (main column effect) / AUC of body weight curve, group mean / Body weight (BW) / Fat/lean ratio / fat mass of DIO / Fat/lean ratio, group mean / fat mass of DIO, group mean: DIO mice; for Body weight, column mean (main column effect): mean over 5 weeks, N=45; for AUC of body weight curve, group mean: n=9; for Fat/lean ratio, group mean / fat mass of DIO, group mean: n=8; for body weight of db/db ip APC, group mean: N 6; for Body weight, group mean: N=7; for Body weight: individual mice
Experimental: All animal experiments were performed according to procedures approved by the Shanghai Institutes for Biological Sciences (SIBS) Animal Care and Use Committee. The db/db mice (stock NO. 000642 C57BL/6J, JACKSON) were purchased from the Jackson laboratory. The 8–10-week-old wild-type C57BL/6 and ICR/JCL mice were purchased from the Shanghai Laboratory Animal Center. Mice were housed in the animal facility at SIBS, in which mice were maintained on a 12-h light/12-h dark cycle for at least 2 weeks before the study and had free access to water and a regular diet (12% fat). For high-fat-induced obesity mice (DIO), high-fat diet (60% fat, Research Diets) was fed to wild-type mice for at least 13–15 weeks and glucose-tolerance tests were performed to confirm the development of diabetes in these mice. After being euthanized, samples were collected. Unless specified, male mice were used for these experiments.
Under the condition of non-anesthesia and non-invasion, the composition of fat and lean in live mice was analyzed by nuclear magnetic resonance (NMR, The Minispec, Bruker) according to the operational manual.

[3] = DIO and db/db mice, i.p. 10 or 20 mg/kg
[4] = APC 10 mg/kg, individual animals
[5] = APC 20 mg/kg, individual animals
[6] = db/db mice, mean, sample size 7

SMILES: CC(C)=CCc1cc(C=CC(=O)O)cc(CC=C(C)C)c1O [APC, 3,5-diprenyl-4-hydroxycinnamic acid]
- Relative HIS/GST in GST-pull down fraction ([1]; APC 5 uM): 0.8055 and 0.8618 and 0.7881
- Relative HIS/GST in GST-pull down fraction ([1]; APC 10 uM): 0.4842 and 0.3120 and 0.3223
- Relative HIS/GST in GST-pull down fraction ([1]; APC 50 uM): 0.1707 and 0.1125 and 0.1021
- HIS-CRTC2-S171A recovered by GST-CREB ([1]; purified proteins, APC 5, 10, 50 μM, dose-dependent): significantly diminished
- body weights [2, 3]: reduced
- fat mass and fat to lean ratio [2, 3]: significant decrease
- Total Area (AUC of body weight curve) ([2]; APC 10 mg/kg ip, individual animals): 120.1 and 149.9 and 145.1 and 147.4 and 144.1 and 156.2 and 141.9 and 151.1 and 155.2
- Body weight, column mean (main column effect) ([2]; APC 10 mg/kg ip, in g (unit assumed)): 37.24
- AUC of body weight curve, group mean ([2]; APC 10 mg/kg ip): 145.7
- Body weight (BW) ([2]; APC 10 mg/kg ip, week 0, individual animals): 35.8 g and 42.4 g and 44.2 g and 42.6 g and 43.4 g and 41.4 g and 42 g and 41.7 g and 47 g
- Body weight (BW) ([2]; APC 10 mg/kg ip, week 1, individual animals): 29.5 g and 36.7 g (2×) and 37.7 g and 36.4 g and 42.9 g and 35.2 g and 34.9 g and 39.6 g
- Body weight (BW) ([2]; APC 10 mg/kg ip, week 2, individual animals): 29.3 g and 36.8 g and 38.4 g and 36 g (2×) and 36.6 g and 42.8 g and 35.7 g and 39.9 g
- Body weight (BW) ([2]; APC 10 mg/kg ip, week 3, individual animals): 29.3 g and 37.3 g and 38.5 g and 36.1 g and 35 g and 42.4 g and 35.3 g and 35.8 g and 39.5 g
- Body weight (BW) ([2]; APC 10 mg/kg ip, week 4, individual animals): 29.7 g and 37.3 g and 38.4 g and 36.7 g and 33.7 g and 40.9 g and 33.3 g and 42 g and 37.2 g
- Body weight (BW) ([2]; APC 10 mg/kg ip, week 5, individual animals): 34.01 g and 40.28 g and 41.99 g and 40.47 g and 41.23 g and 39.33 g and 39.9 g and 39.615 g and 44.65 g
- Fat/lean ratio [2, 4]: 0.4757 and 0.5256 and 0.2029 and 0.4176 and 0.1933 and 0.2387 and 0.2853 and 0.2798
- fat mass of DIO [2, 4]: 10.86 g and 11.25 g and 7.23 g and 10.98 g and 11.28 g and 7.03 g and 6.72 g and 7.86 g
- Fat/lean ratio, group mean ([2]; APC 10 mg/kg): 0.3274
- fat mass of DIO, group mean ([2]; APC 10 mg/kg): 9.151
- Total Area (AUC of body weight curve) ([2]; APC 20 mg/kg ip, individual animals): 123.1 and 131.4 and 141.8 and 135.4 and 152.5 and 146.9 and 147.6 and 154 and 138.7
- Body weight, column mean (main column effect) ([2]; APC 20 mg/kg ip, in g (unit assumed)): 35.74
- AUC of body weight curve, group mean ([2]; APC 20 mg/kg ip): 141.3
- Body weight (BW) ([2]; APC 20 mg/kg ip, week 0, individual animals): 36.3 g and 41.5 g and 43.7 g and 41.3 g (2×) and 48.2 g and 44.7 g and 46.6 g and 47.1 g
- Body weight (BW) ([2]; APC 20 mg/kg ip, week 1, individual animals): 29.9 g and 34.9 g and 36.7 g and 33 g and 40.6 g and 37.6 g and 35.9 g and 38.6 g and 35.1 g
- Body weight (BW) ([2]; APC 20 mg/kg ip, week 2, individual animals): 30.2 g and 33.7 g (2×) and 35.8 g and 41.6 g and 38.4 g and 36.8 g and 39.6 g and 34.9 g
- Body weight (BW) ([2]; APC 20 mg/kg ip, week 3, individual animals): 30 g and 31.4 g and 35.1 g and 33.7 g and 41.2 g and 35.4 g and 36.3 g and 37.9 g and 34.4 g
- Body weight (BW) ([2]; APC 20 mg/kg ip, week 4, individual animals): 30.5 g and 31.2 g and 34 g (2×) and 38.9 g and 31.3 g and 36.7 g and 37.2 g and 34.3 g
- Body weight (BW) ([2]; APC 20 mg/kg ip, week 5, individual animals): 30.855 g and 35.275 g and 37.145 g and 35.105 g (2×) and 40.97 g and 37.995 g and 39.61 g and 40.035 g
- Fat/lean ratio [2, 5]: 0.1945 and 0.1916 and 0.1806 and 0.5498 and 0.1998 and 0.4126 and 0.3005 and 0.2177
- fat mass of DIO [2, 5]: 8.13 g and 8.08 g and 9.26 g and 10.23 g and 9.91 g and 8.44 g and 10.75 g and 9.93 g
- Fat/lean ratio, group mean ([2]; APC 20 mg/kg): 0.2809
- fat mass of DIO, group mean ([2]; APC 20 mg/kg): 9.341
- fat of db/db mice ([2]; db/db mice, individual animals): 13.23 g and 18.64 g and 16.51 g and 20.35 g and 17.58 g and 17.71 g and 15.53 g
- fat/lean ratio of db/db mice ([2]; db/db mice, individual animals): 1.371 and 1.124 (2×) and 1.477 and 1.196 and 1.113 and 1.231
- body weight of db/db ip APC ([2]; db/db mice, 0W, individual animals): 45.4 g and 45.3 g and 44.6 g and 40 g and 47.8 g and 44 g
- body weight of db/db ip APC ([2]; db/db mice, 1W, individual animals): 48.6 g and 47.9 g and 47.4 g and 42.5 g and 49.5 g and 45.9 g
- body weight of db/db ip APC, group mean ([2]; db/db mice, 1W, mean): 46.97 g
- body weight of db/db ip APC ([2]; db/db mice, 2W, individual animals): 48.4 g and 47.9 g and 47.3 g and 41.7 g and 48.9 g and 45.9 g
- body weight of db/db ip APC ([2]; db/db mice, 4W, individual animals): 47.9 g and 46.5 g and 48.1 g and 42.5 g and 45.8 g and 47.8 g
- body weight of db/db ip APC, group mean ([2]; db/db mice, 4W, mean): 46.43 g
- body weight of db/db ip APC ([2]; db/db mice, 5W, individual animals): 47.9 g and 45.3 g and 47.8 g and 44.9 g and 46.8 g and 48.5 g
- body weight of db/db ip APC, group mean ([2]; db/db mice, 5W, mean): 46.87 g
- fat of db/db mice, group mean [2, 6]: 17.08 g
- fat/lean ratio of db/db mice, group mean [2, 6]: 1.234
- Body weight, group mean ([2]; lean WT mice ip APC, 8w, in g (unit assumed)): 20.96
- Body weight ([2]; lean WT mice ip APC, 8w): 21.4 g and 21.2 g and 20.1 g and 20.5 g and 21.7 g and 20.9 g (2×) and 21.6 g
- Body weight, column mean over all weeks ([2]; lean WT mice ip APC, 8w-15w, in g (unit assumed)): 22.98
- Body weight, group mean ([2]; lean WT mice ip APC, 10w, in g (unit assumed)): 22.01
- Body weight ([2]; lean WT mice ip APC, 10w): 23.62 g and 20.96 g and 22.95 g and 20.89 g and 22.05 g and 22.38 g and 21.2 g and 21.22 g
- Body weight, group mean ([2]; lean WT mice ip APC, 12w, in g (unit assumed)): 23.14
- Body weight ([2]; lean WT mice ip APC, 12w): 25.7 g and 21.4 g and 23.7 g and 23 g and 24.2 g and 22.5 g and 23.3 g and 21.5 g
- Body weight, group mean ([2]; lean WT mice ip APC, 13w, in g (unit assumed)): 24.08
- Body weight ([2]; lean WT mice ip APC, 13w): 25.85 g and 22.7 g and 24.7 g and 23.6 g and 24.5 g and 24.21 g and 23.8 g and 23 g
- Body weight, group mean ([2]; lean WT mice ip APC, 15w, in g (unit assumed)): 24.72
- Body weight ([2]; lean WT mice ip APC, 15w): 27.03 g and 22.8 g and 25.2 g and 23.7 g and 26 g and 24.5 g and 23.5 g and 23.8 g
- RER, body weight and plasma NEFA levels of lean mice ([2]; lean wild C57 mice, i.p. 20 mg/kg, 3 weeks): little effect
